The results in this text go back to patent US5741811A, “Polythiophene anti-tumor agents” (Purdue Research Foundation, priority 1996, dated 1998).

Values after ≈ are worked out from the molar mass of the structure shown. Bounds are passed on as bounds.

For experiment [1], the system named is HCT-116 colon cancer cells. As to the kind of experiment: NCI human tumor cell line panel growth inhibition. The class given is cell-based.
Experiment [2] deals with NCI-H226 lung cancer cells. In words: NCI human tumor cell line panel growth inhibition. The class given is cell-based.
For experiment [3], the system named is NCI-H460 lung cancer cells. As to the kind of experiment: NCI human tumor cell line panel growth inhibition. The class given is cell-based.
In experiment [4] the test system is CAKI-1 renal cancer cells. As to the kind of experiment: NCI human tumor cell line panel growth inhibition. In kind it is cell-based. The settings on record: CAKI-1, renal cancer.
For experiment [5], the system named is RXF-631 renal cancer cells. In words: NCI human tumor cell line panel growth inhibition. The class given is cell-based.
The test system of the next experiment is UACC-257 melanoma cells. In words: NCI human tumor cell line panel growth inhibition. The class given is cell-based.
In experiment [6] the test system is KM20L2 colon cancer cells. In words: NCI human tumor cell line panel growth inhibition. In kind it is cell-based.
Experiment [7] deals with OVCAR-5 ovarian cancer cells. In words: NCI human tumor cell line panel growth inhibition. The class given is cell-based.
For experiment [8], the system named is IGROV-1 ovarian cancer cells. As to the kind of experiment: NCI human tumor cell line panel growth inhibition. In kind it is cell-based.
The test system of the next experiment is SNB-75 CNS cancer cells. As to the kind of experiment: NCI human tumor cell line panel growth inhibition. The class given is cell-based.
A further experiment deals with TK-10 renal cancer cells. As to the kind of experiment: NCI human tumor cell line panel growth inhibition. The class given is cell-based.
The subject of another experiment is UACC-62 melanoma cells. In words: NCI human tumor cell line panel growth inhibition. In kind it is cell-based.
For a further experiment, the system named is A-498 renal cancer cells. In words: NCI human tumor cell line panel growth inhibition. In kind it is cell-based.
For the next experiment, the system named is U251 CNS cancer cells. In words: NCI human tumor cell line panel growth inhibition. The class given is cell-based.
For experiment [9], the system named is LXPL-529 lung cancer cells. In words: NCI human tumor cell line panel growth inhibition. The class given is cell-based.
Experiment [10] deals with NHBE cells (Normal human bronchial epithelial cells). As to the kind of experiment: Selective cytotoxicity, normal cells (cell count). In kind it is cell-based.
Experiment [11] deals with TBE cells (ras-transformed human bronchial epithelial cells). In words: Selective cytotoxicity, ras-transformed cells (cell count). The class given is cell-based.
Experiment [12] concerns ras-transformed human bronchial epithelial cells (TBE) tumor. As to the kind of experiment: In vivo antitumor activity, TBE cells implanted in athymic mice. To be noted: 25 mg/kg i.p., 4.0 × 10^6 cells/mouse; for Number of Animals with Tumor: five mice. Details: species or system athymic mice (human tumor cells). On the procedure: The experiments were carried out at Purdue University athymic mouse laboratory. Athymic mice were purchased from and maintained at the athymic mouse laboratory under […]. Tumor cells (TBE) were obtained from normal human bronchial epithelial cells transfected with plasmic H1 carrying v-Harvey-ras (H-ras) oncogene via protoplast fusion (G. H. Yoakum, J. F. Lechner, E. W. Gabrielson, B. E. Korba, L. Malan-Shibley, J. C. Willey, M. G. Valerio, A. M. Shamsuddin, B. F. Trump and C. C. Harris, Science 227, 1174, 1985. T. C. K. Chan, C.-j. Chang, N. M. Koonchanok and R.L. Geahlen, Biochem. Biophys. Res. Commun., 193, 1152, 1993. The TBE cells were implanted subcutaneously on day 0 of the experiment. Each test group consists of five mice. The compounds tested were dissolved in a saline solution or a saline solution containing 5% of dimethylsulfoxide and 10% cremphor EL (Sigma Chemical Company, St. Louis, Mo.), and were administered intraperitoneously starting on day 2. The solution was administered every four days for a total of four treatments. Tumor volumes were measured every week. The antitumor activity was measured as % of growth inhibition, which is defined by the percentage of the median tumor volume reduction per week of the treated mice divided by the median tumor volume per week of the controlled mice (Tables 9 and 10).

Experiment [13] deals with RXF-393 renal cancer cells. In words: NCI human tumor cell line panel growth inhibition. In kind it is cell-based. To be noted: Homo sapiens, read-out: Log10 GI50 (converted).
Experiment [14] concerns NCI-H322M lung cancer cells. As to the kind of experiment: NCI human tumor cell line panel growth inhibition. To be noted: Homo sapiens, read-out: Log10 GI50 (converted). The class given is cell-based.
Experiment [15] has as its system HCC-2998 colon cancer cells. In words: NCI human tumor cell line panel growth inhibition. In kind it is cell-based. To be noted: Homo sapiens, read-out: Log10 GI50 (converted).
In experiment [16] the test system is NCI-H23 lung cancer cells. In words: NCI human tumor cell line panel growth inhibition. The settings on record: read-out: Log10 GI50 (converted). The class given is cell-based.
Another experiment concerns HOP-18 lung cancer cells. As to the kind of experiment: NCI human tumor cell line panel growth inhibition. In kind it is cell-based. To be noted: Homo sapiens, read-out: Log10 GI50 (converted).
In experiment [17] the test system is COLO-205 colon cancer cells. As to the kind of experiment: NCI human tumor cell line panel growth inhibition. The class given is cell-based. The settings on record: Homo sapiens; COLO-205, colon cancer; read-out: Log10 GI50 (converted).
Another experiment concerns DLD-1 colon cancer cells. As to the kind of experiment: NCI human tumor cell line panel growth inhibition. To be noted: Homo sapiens, read-out: Log10 GI50 (converted). In kind it is cell-based.
For the next experiment, the system named is SF-295 CNS cancer cells. As to the kind of experiment: NCI human tumor cell line panel growth inhibition. In kind it is cell-based. The settings on record: read-out: Log10 GI50 (converted).
Another experiment relates to SNB-19 CNS cancer cells. As to the kind of experiment: NCI human tumor cell line panel growth inhibition. The settings on record: Homo sapiens, read-out: Log10 GI50 (converted). The class given is cell-based.
[18] abbreviates: Homo sapiens, read-out: Log10 GI50 (converted).

Turning to `O=Cc1ccc(-c2ccc(-c3ccc(C=O)s3)s2)s1` [drawing 35], the “Log10 GI50” value in [1] is -4.74 M; in experiment [2], -5.76 M; in [3] it was -5.62 M; in experiment [4], -5.88 M; in experiment [5] it was -4.03 M; with UACC-257 melanoma cells, -5.72 M. Besides, the “Log10 GI50” value in experiment [6] is recorded as -4.39 M; in [7] it was -4.68 M; in experiment [8] it was -5.15 M; in the experiment on SNB-75 CNS cancer cells, -4.14 M; in the experiment with TK-10 renal cancer cells, -5.29 M; in the experiment with UACC-62 melanoma cells, -6.46 M. In addition, the entries for the “Log10 GI50” value (with A-498 renal cancer cells; in the experiment on U251 CNS cancer cells; in experiment [9]) were -5.93 M, -6.09 M and -5.95 M, respectively.

Consider `OCc1ccc(-c2ccc(-c3cccs3)s2)s1` [compound 637388], for which the GI50 (commonly the concentration that inhibits growth by half) in experiment [10] was 3 µg/mL (≈ 10.8 µM); in experiment [11] it was 0.02 µg/mL (≈ 0.0718 µM).

In the case of `OCc1ccc(-c2ccc(-c3sccc3CO)s2)s1` [compound 658875], the GI50 amounted to 9.7 µg/mL (≈ 31.4 µM) in experiment [10] and 0.002 µg/mL (≈ 0.00648 µM) in [11].

In the case of `NCc1ccc(-c2ccc(-c3cccs3)s2)s1` [compound 652866], the GI50 in experiment [10] is 0.01 µg/mL (≈ 0.036 µM); in experiment [11], 0.001 µg/mL (≈ 0.0036 µM).

Take `O=Cc1ccc(-c2ccc(-c3ccsc3)s2)s1` [compound 660643]: the GI50 stood at 2.4 µg/mL (≈ 8.68 µM) in [10] and 0.005 µg/mL (≈ 0.0181 µM) in experiment [11].

As for `OCc1ccc(-c2ccc(CO)s2)s1` [compound 647452], the GI50 in experiment [10] came to 0.6 µg/mL (≈ 2.65 µM); in [11], 0.03 µg/mL (≈ 0.133 µM).

Consider `O=Cc1ccc(-c2ccc(-c3ccc(CO)s3)s2)s1` [compound 647455], for which the “Tumor Volume” value in experiment [12] (week 1) amounted to 0.0 mm^3; in experiment [12] (week 1.5), 1.4 mm^3; in experiment [12] (week 2), 5.2 mm^3; in experiment [12] (week 3), 5.8 mm^3; in [12] (week 4), 5.6 mm^3; in experiment [12] (week 5), 5.4 mm^3. Moreover, the “Tumor Volume” value came to 10.6 mm^3 in experiment [12] (week 6) and 18.8 mm^3 in experiment [12] (week 8.6). In addition, the “Number of Animals with Tumor” value in [12] (week 1) came out at 0; in experiment [12] (week 1.5), 1; in [12] (week 2), 3; in [12] (week 3), 4; in [12] (week 4) it was 4; in [12] (week 5), 4. Moreover, the “Number of Animals with Tumor” value in experiment [12] (week 6) and in experiment [12] (week 8.6) was 5 throughout. In addition, the Slope in experiment [12] (week 3) came out at 2.16 mm^3 /week; in experiment [12] (week 4), 1.75 mm^3 /week; in [12] (week 5), 1.34 mm^3 /week; in experiment [12] (week 6), 1.60 mm^3 /week; in experiment [12] (week 8.6) it was 2.07 mm^3 /week. Besides, the “Tumor Growth Inhibition” value turned out to be 57% in experiment [12] (week 3); 60% in [12] (week 4); 61% in experiment [12] (week 5); 45% in [12] (week 6); 21% in [12] (week 8.6). Moreover, the GI50 in experiment [10] amounted to 0.1 µg/mL (≈ 0.326 µM); in experiment [11], 0.002 µg/mL (≈ 0.00653 µM).

As for `O=Cc1ccc(-c2ccc(-c3sccc3CO)s2)s1` [compound 658876], the GI50 in [10] was determined as 0.4 µg/mL (≈ 1.31 µM); in [11], 0.02 µg/mL (≈ 0.0653 µM).

On to `O=Cc1ccc(-c2ccc(-c3cc(CO)cs3)s2)s1` [compound 658879], for which the GI50 in experiment [10] turned out to be 6.2 µg/mL (≈ 20.2 µM); in experiment [11], 0.004 µg/mL (≈ 0.0131 µM).

`O=Cc1ccc(-c2ccc(-c3sccc3C=O)s2)s1` [compound 658877]: the GI50 in experiment [10] was determined as 0.6 µg/mL (≈ 1.97 µM); in [11], 0.03 µg/mL (≈ 0.0985 µM).

With `CC[N+](CC)(CC)Cc1ccc(-c2ccc(-c3cccs3)s2)s1` [compound 659561], the GI50 in experiment [10] is 5 µg/mL; in [11] it was 2 µg/mL.

In the case of `NCc1ccc(-c2ccc(-c3ccc(CN)s3)s2)s1` [compound 658110], the GI50 in experiment [10] is 10 µg/mL (≈ 32.6 µM); in experiment [11], 4 µg/mL (≈ 13.1 µM).

Take `NCc1ccc(-c2ccc(-c3ccc(CO)s3)s2)s1` [compound 656898]: the GI50 in [10] amounted to 3 µg/mL (≈ 9.76 µM); in experiment [11], 0.02 µg/mL (≈ 0.065 µM).

With `OCc1ccc(-c2ccc(-c3cccs3)s2)s1` [drawing 30], the GI50 in [1] (setting [18]) is 295 nM; in [2] (setting [18]), 117 nM; in experiment [13], 31.6 nM; in experiment [3] (setting [18]), 490 nM; in experiment [14], 29500 nM; in experiment [15], 36300 nM. Moreover, the concentration for 50% growth inhibition (GI50) in experiment [4] (setting [18]) was 27.5 nM; in experiment [5] (setting [18]) it was 28.2 nM; in the experiment on UACC-257 melanoma cells (setting [18]), 102 nM; in experiment [6] (Homo sapiens, KM-20L2, read-out: Log10 GI50 (converted)), 245 nM; in experiment [16], 70800 nM; in experiment [7] (setting [18]), 224 nM. The GI50 is 42.7 nM in [8] (setting [18]); 105 nM with TK-10 renal cancer cells (setting [18]); under 10 nM with UACC-62 melanoma cells (setting [18]); 22400 nM in the experiment on HOP-18 lung cancer cells; under 10 nM in the experiment on A-498 renal cancer cells (Homo sapiens, A498, read-out: Log10 GI50 (converted)); 912 nM in [17]. Besides, the GI50 with DLD-1 colon cancer cells is 4470 nM; in the experiment with SF-295 CNS cancer cells, 33900 nM; with SNB-19 CNS cancer cells, 18600 nM; in the experiment on U251 CNS cancer cells (Homo sapiens, U-251, read-out: Log10 GI50 (converted)), 148 nM; in experiment [9] (setting [18]), under 10 nM.

`OCc1ccc(-c2ccc(-c3ccsc3)s2)s1` [compound 660644]: the GI50 worked out at 3.6 µg/mL (≈ 12.9 µM) in experiment [10] and 0.002 µg/mL (≈ 0.00718 µM) in [11].

With `OCc1csc(-c2ccc(-c3ccc(CO)s3)s2)c1` [compound 658878], the GI50 in [10] was found to be 8 µg/mL (≈ 25.9 µM); in [11], 0.002 µg/mL (≈ 0.00648 µM).

Consider `O=Cc1ccc(-c2ccc(-c3cccs3)s2)s1` [compound 637393], for which the GI50 in [10] is 0.2 µg/mL (≈ 0.724 µM); in experiment [11], 0.03 µg/mL (≈ 0.109 µM).

As to `O=Cc1ccc(-c2ccc(CO)s2)s1` [compound 647073], the GI50 in experiment [10] was determined as 0.08 µg/mL (≈ 0.357 µM); in [11], 0.05 µg/mL (≈ 0.223 µM).

In the case of `O=Cc1ccc(-c2ccc(-c3ccc(C=O)s3)s2)s1` [compound 637394], the GI50 is 0.2 µg/mL (≈ 0.657 µM) in experiment [10] and 0.01 µg/mL (≈ 0.0328 µM) in [11].
